The test system of experiment [1] is acylase produced by Streptomyces sp. No. 6907. The experiment is described as follows: Deacylation of cyclic lipopeptide substrates by the acylase of Streptomyces sp. No. 6907 (HPLC, Lineweaver-Burk, substrate specificity). Particulars: for Vmax / Km: substrate of the acylase, fermentation broth of Streptomyces sp. No. 6907; for Km: read-out: Km value determined by the Lineweaver-Burk method. The format is biochemical. The method, then: To 700 μl of the fermentation broth of Streptomyces sp. No. 6907 obtained in Example 1-3 was added 100 μl of an aqueous solution of Substance FR901379 (100 mg/ml) (10 mg as Substance FR901379; 8.35 μmol) together with 100 μl of methanol and 100 μl of buffer (0.5 M potassium dihydrogen phosphate-disodium hydrogen phosphate buffer; pH 6.0), and the reaction was carried out at 30° C. for 30 minutes. The reaction was then stopped with 4% acetic acid and following addition of 2 ml of methanol, the mixture was filtered through a membrane filter (0.45 μm) to remove the macromolecular protein and other fraction and subjected to HPLC and the acylase activity of the skeletal substance FR179642 produced was monitored and assayed at 210 nm.
Using a variable wavelength UV detector (Shimadzu SPD-10A), a pump (Shimadzu LC-10AD) and an integrator (Shimadzu C-R6A) as the instrumentation, LiChrospher 100RP-18(e) (250 mm×4 mm i.d., particle diameter 5 μm(E.Merck)) as the stationary phase, and 3% acetonitrile/0.5% ammonium dihydrogen phosphate as the mobile phase, Substance FR179642 was eluted at a flow rate of 1 ml/min. The retention time of Substance FR179642 was about 6.3 minutes. The yield of Substance FR179642 as calculated from HPLC data was 560 μg (0.60 μmol).
(§1) To 100 μl of the fermentation broth of Streptomyces sp. No. 6907 obtained in Example 1-3 was added 100 μl of a dimethyl sulfoxide solution of Aculeacin A (100 mg/ml) (10 mg as Aculeacin A; 9.65 μmol) together with 500 μl of 1.2 M KCl-containing 500 mM potassium dihydrogen phosphate-disodium hydrogen phosphate buffer (pH 7.0) and 300 μl of water, and the reaction was carried out at 40° C. for 15 minutes. The reaction was then stopped with 1 ml of 4% acetic acid and following addition of 2 ml of methanol, the mixture was filtered through a membrane filter (0.45 μm) to remove the macromolecular protein and other fraction and subjected to HPLC and the acylase activity of the nuclear substance Aculeacin A produced was monitored at 210 nm and determined. Using a variable wavelength UV detector (Shimadzu SPD-10A), a pump (Shimadzu LC-10AD) and an integrator (Shimadzu C-R6A) as the instrumentation, LiChrospher 100RP-18(e) (250 mm×4 mm i.d., particle diameter 5 μm (E.Merck)) as the stationary phase, and 4% acetonitrile/1% ammonium dihydrogen phosphate as the mobile phase, nuclear substance Aculeacin A was eluted at a flow rate of 1 ml/min. The retention time of nuclear substance Aculeacin A was about 8.7 minutes. The yield of nuclear substance Aculeacin A as calculated from HPLC data was 370 μg (0.47 μmol).
as §1, with “Echinocandin B” for “Aculeacin A”, “Echinocandin B; 9.43” for “Aculeacin A; 9.65”, “monitored and assayed” for “monitored”, “nm.” for “nm and determined.”, “90” for “370”, “(0.11” for “(0.47”
To 2.0 ml of the fermentation broth of Streptomyces sp. […]

The target in experiment [2] is T1, Actinoplanes utahensis-derived acylase (Actinoplanes utahensis, UniProt P29958).
T1 construct: To 20 ml of a fermentation broth of Actinoplanes utahensis IF013244; endogenous in cells; host or cells: Actinoplanes utahensis IF013244 (so in the source), whole fermentation broth
T1 sequence (P29958 230-786 limits assumed): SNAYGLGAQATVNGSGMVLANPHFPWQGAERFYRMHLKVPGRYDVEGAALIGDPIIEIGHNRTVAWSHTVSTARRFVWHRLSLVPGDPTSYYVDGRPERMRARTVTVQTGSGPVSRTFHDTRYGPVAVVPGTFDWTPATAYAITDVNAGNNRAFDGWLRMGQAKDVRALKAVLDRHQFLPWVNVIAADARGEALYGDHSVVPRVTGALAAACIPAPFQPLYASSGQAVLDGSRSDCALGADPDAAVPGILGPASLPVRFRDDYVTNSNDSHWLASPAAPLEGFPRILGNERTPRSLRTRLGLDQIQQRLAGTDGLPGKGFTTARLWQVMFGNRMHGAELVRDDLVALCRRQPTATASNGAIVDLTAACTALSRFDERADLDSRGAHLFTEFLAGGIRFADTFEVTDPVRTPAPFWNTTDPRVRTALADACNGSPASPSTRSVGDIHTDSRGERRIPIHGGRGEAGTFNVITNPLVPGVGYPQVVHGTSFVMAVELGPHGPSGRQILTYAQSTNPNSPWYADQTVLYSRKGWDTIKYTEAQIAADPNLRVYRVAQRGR
T1 sequence (P29958 35-214 limits assumed): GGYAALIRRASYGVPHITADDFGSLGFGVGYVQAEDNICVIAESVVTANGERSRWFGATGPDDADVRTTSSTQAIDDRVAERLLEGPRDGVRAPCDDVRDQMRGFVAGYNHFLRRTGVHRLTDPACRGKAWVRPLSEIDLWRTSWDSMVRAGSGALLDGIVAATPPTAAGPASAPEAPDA
The experiment is described as follows: Deacylation of Substance FR901469 by Actinoplanes utahensis acylase (HPLC of Substance FR181131). It counts as biochemical, Actinoplanes utahensis IF013244. Particulars: produces Substance FR181131. Here is the method: To 20 ml of a fermentation broth of Actinoplanes utahensis IF013244 as prepared by the procedure described in J. Antibiotics, Vol. 41, p. 1085-1092 ('88) was added 1 ml of an aqueous solution of Substance FR901469 (200 mg/ml) (0.2 g as Substance FR901469; 130 μmol) together with 2.9 g of disodium hydrogen phosphate and 60 ml of water, and the reaction was carried out at 60° C. for 24 hours. After completion of the reaction, the reaction mixture was filtered through a membrane filter (0.45 μm) to remove the high molecular protein and other fraction and purified by HPLC under monitoring for Substance FR181131 at 210 nm and the acylase activity was determined. Using a variable wavelength UV detector (Shimadzu SPD-10A), a pump (Shimadzu LC-10AD) and an integrator (Shimadzu C-R6A) as the instrumentation, YMC AM303 (250 mm×4 mm i.d., particle diameter 5 μm) as the stationary phase, and 12.5% acetonitrile/0.5% ammonium dihydrogen phosphate as the mobile phase, Substance FR181131 was eluted at a flow rate of 1 ml/min. The retention time of Substance FR181131 was about 7.3 minutes. The yield of Substance FR181131 as calculated from HPLC data was 80 mg (68 μmol).

Where two headings read alike, the source gives them in different places. Starred links: 1 amine or outer side, 2 acyl side, 3 side chain; linkers in the order of their positions; H or OH if unused. Positions of bridges follow the written chain, without caps; N, C: chain ends. Non-standard residues stand in square brackets, D forms with d. Residues, ends and D or L forms follow the SMILES beside them. ξ: configuration not given here. *: point of attachment. X1 = O=C(C(N[*:1])C(O)C(O)c1ccc(O)c(OS(=O)(=O)O)c1)[*:2]; ξOrn(4,5-diOH) = O=C(C(CC(O)C(O)N[*:3])N[*:1])[*:2]; X4 = CCCCCCCCCCCCCC(CC(=O)[*:1])O[*:2]; ξPro(3ξ-OH,4ξ-Me) = CC1CNC(C(=O)O)C1O; X2 = NC(=O)CC(O)C(N[*:1])C(=O)[*:2]; Palmitoyl = CCCCCCCCCCCCCCCC(=O)*; X3 = O=C(C1C(O)CCN1[*:1])[*:2]; Hyp = O=C(O)[CH]1C[CH](O)CN1; Orn = NCCC[CH](N)C(=O)O

Turning to Echinocandin B, in experiment [1], the “Substrate specificity (catalytic action of the acylase on the substrate)” value (“Substrate specificity” below) was “acts as a catalyst”, the Vmax is 7.85 U/mg-protein and the Km (usually the substrate concentration at which the rate is half of its maximum) turned out to be 146 µM.

In the case of Aculeacin A, in experiment [1], the “Substrate specificity” value was “acts as a catalyst”, the Vmax amounted to 16.8 U/mg-protein and the Km was 279 µM.

As to `CCCCCCCCCCCCCCCC(=O)NC1CC(O)C(O)NC(=O)C2C(O)C(C)CN2C(=O)C(C(O)CC(N)=O)NC(=O)C(C(O)C(O)c2ccc(O)c(OS(=O)(=O)O)c2)NC(=O)C2CC(O)CN2C(=O)C(C(C)O)NC1=O` (stereo not drawn) [Substance FR901379] (Palmitoyl-[ξOrn(4,5-diOH)]T[Hyp][X1][X2][ξPro(3ξ-OH,4ξ-Me)]; lactam 1-C; configuration not given here), in experiment [1], the “Substrate specificity” value is on record as “acts as a catalyst”, the Vmax is 14.3 U/mg-protein and the Km turned out to be 257 µM.

On to `CCCCCCCCCCCCCC1CC(=O)NC(C(C)O)C(=O)NC(C)C(=O)NC(Cc2ccc(O)cc2)C(=O)NC(C(C)C)C(=O)N2CC(O)CC2C(=O)NC(C(C)O)C(=O)NC(C(C)O)C(=O)N2CCC(O)C2C(=O)NC(C(O)CC(N)=O)C(=O)NCC(=O)NC(C(C)O)C(=O)NC(CCCN)C(=O)O1` (stereo not drawn) [Substance FR901469] (TAYV[Hyp]TT[X3][X2]GT[Orn]; linker N-C via X4; configuration not given here), for which the “Substrate specificity” value in experiment [2] is recorded as “exerts a catalytic action”; in experiment [1], “exerts no catalytic action”; in experiment [1] (listed as FR901469) it was “does not act upon”.

The values above are taken from US6573084B1, “Process for the deacylation of cyclic lipopeptides” (Fujisawa Pharmaceutical Co., Ltd., priority 1996, dated 2003).
